Each compound was assayed against MAPKAPK2 (Homo sapiens, UniProt P49137) (assay: MK2 Enzymatic Assay). Details: 0.5 nM MAPKAPK2, 3 μM ATP, 2 μM Ser/Thr4 peptide, 23° C., values given as concentration bins.
MAPKAPK2, sequence (P49137 whole entry, species assumed): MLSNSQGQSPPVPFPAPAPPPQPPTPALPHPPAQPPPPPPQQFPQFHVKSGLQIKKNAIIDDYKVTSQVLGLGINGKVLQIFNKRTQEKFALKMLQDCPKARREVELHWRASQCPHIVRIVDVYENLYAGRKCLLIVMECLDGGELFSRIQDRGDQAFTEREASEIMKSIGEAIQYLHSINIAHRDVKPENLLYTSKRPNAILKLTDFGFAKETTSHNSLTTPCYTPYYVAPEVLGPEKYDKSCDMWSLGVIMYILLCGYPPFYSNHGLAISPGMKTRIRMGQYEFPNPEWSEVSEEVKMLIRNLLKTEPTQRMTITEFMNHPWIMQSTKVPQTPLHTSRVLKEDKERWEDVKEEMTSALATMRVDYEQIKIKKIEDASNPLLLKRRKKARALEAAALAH
Format: biochemical
How it was run: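 Percent phosphorylation was derived from coumarin and fluorescein emissions relative to 0% and 100% phospho-peptide controls, read after a 120 min development step. Reactions used 2× stocks of 1 nM kinase, 4 μM peptide and 6 μM ATP; enzyme and peptide sat 20 min before a 120 min ATP reaction.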
`CN(C)[C@H]1CCN(c2ccc3c(c2)Cn2cc(-c4ccc(F)cc4)cc2-c2nccn2-3)C1` [Compound 380, (S)-1-(12-(4-fluorophenyl)-9H-benzo[e]imidazo[2,1-c]pyrrolo[1,2-a][1,4]diazepin-7-yl)-N,N-dimethylpyrrolidin-3-amine] showed an IC50 of under 50 nM. In the case of `CN(C)C[C@@H]1CCN(c2ccc3c(c2)Cn2cc(-c4ccc(F)cc4)cc2-c2ncnn2-3)C1` [Compound 413, (S)-1-(1-(12-(4-fluorophenyl)-9H-benzo[e]pyrrolo[1,2-a][1,2,4]triazolo[5,1-c][1,4]diazepin-7-yl)pyrrolidin-3-yl)-N,N-dimethylmethanamine], the IC50 is reported as under 50 nM. Compound `CNCCC1CCN(c2ccc3c(c2)Cn2cc(-c4ccc(F)cc4)cc2-c2nccn2-3)C1` (centres unmarked) [Compound 487, 2-(1-(12-(4-fluorophenyl)-9H-benzo[e]imidazo[2,1-c]pyrrolo[1,2-a][1,4]diazepin-7-yl)pyrrolidin-3-yl)-N-methylethanamine] has an IC50 of under 50 nM. With `CN(C)C[C@@H]1CCN(c2ccc3c(c2)Cn2cc(-c4ccc(F)cc4)cc2-c2nnnn2-3)C1` [Compound 393, (S)-1-(1-(12-(4-fluorophenyl)-9H-benzo[e]pyrrolo[1,2-a]tetrazolo[5,1-c][1,4]diazepin-7-yl)pyrrolidin-3-yl)-N,N-dimethylmethanamine] the IC50 was under 50 nM. Compound `CN(C)C[C@@H]1CN(c2ccc3c(c2)Cn2cc(-c4ccc(F)cc4)cc2-c2cnnn2-3)C[C@H]1O` [Compound 511, (3S,4R)-4-((dimethylamino)methyl)-1-(5-(4-fluorophenyl)-8H-benzo[e]pyrrolo[1,2-a][1,2,3]triazolo[5,1-c][1,4]diazepin-10-yl)pyrrolidin-3-ol] has an IC50 of under 50 nM. For `CC1c2cc(N3C[C@@H](CN(C)C)[C@H](O)C3)ccc2-n2ccnc2-c2cc(-c3ccc(F)cc3)cn21` (stereo partly drawn) [Compound 507, (3S,4R)-4-((dimethylamino)methyl)-1-(12-(4-fluorophenyl)-9-methyl-9H-benzo[e]imidazo[2,1-c]pyrrolo[1,2-a][1,4]diazepin-7-yl)pyrrolidin-3-ol], the IC50 was under 50 nM. `CN(C)[C@H]1CN(c2ccc3c(c2)Cn2cc(-c4ccc(C#N)cc4)cc2-c2nncn2-3)C[C@@H]1O` [Compound 58, 4-(7-((3S,4S)-3-(dimethylamino)-4-hydroxypyrrolidin-1-yl)-9H-benzo[e]pyrrolo[1,2-a][1,2,4]triazolo[3,4-c][1,4]diazepin-12-yl)benzonitrile] was tested, and the IC50 was 50 to 100 nM. `CC(C)N1CC2(CCN(c3ccc4c(c3)Cn3cc(-c5ccc(F)cc5)cc3-c3nccn3-4)C2)C1` [Compound 368, 12-(4-fluorophenyl)-7-(2-isopropyl-2,6-diazaspiro[3.4]octan-6-yl)-9H-benzo[e]imidazo[2,1-c]pyrrolo[1,2-a][1,4]diazepine] gave an IC50 of under 50 nM. `CN(C)[C@@H]1CCN(c2ccc3c(c2)Cn2cc(-c4ccc(F)cc4)cc2-c2nnnn2-3)C1` [Compound 406, (R)-1-(12-(4-fluorophenyl)-9H-benzo[e]pyrrolo[1,2-a]tetrazolo[5,1-c][1,4]diazepin-7-yl)-N,N-dimethylpyrrolidin-3-amine] gave an IC50 of under 50 nM. In the case of `CNC[C@H]1CN(c2ccc3c(c2)Cn2cc(-c4ccc(F)cc4)cc2-c2ncnn2-3)C[C@H]1F` (relative stereo) [Compound 501, 1-(cis-4-fluoro-1-(12-(4-fluorophenyl)-9H-benzo[e]pyrrolo[1,2-a][1,2,4]triazolo[5,1-c][1,4]diazepin-7-yl)pyrrolidin-3-yl)-N-methylmethanamine], the IC50 is reported as under 50 nM. Work on `N#Cc1ccc(-c2cc3n(c2)Cc2cc(N4CC5(CCNCC5)C4)ccc2-n2nnnc2-3)cc1` [Compound 245, 4-(7-(2,7-diazaspiro[3.5]nonan-2-yl)-9H-benzo[e]pyrrolo[1,2-a]tetrazolo[5,1-c][1,4]diazepin-12-yl)benzonitrile] yielded an IC50 of 100 to 200 nM. `C[C@H](CO)NC[C@@H]1CCN(c2ccc3c(c2)Cn2cc(-c4ccc(C#N)cc4)cc2-c2nccn2-3)C1` [Compound 135, 4-(7-((S)-3-((((R)-1-hydroxypropan-2-yl)amino)methyl)pyrrolidin-1-yl)-9H-benzo[e]imidazo[2,1-c]pyrrolo[1,2-a][1,4]diazepin-12-yl)benzonitrile] gave an IC50 of under 50 nM. With `CN1CC2(CCN(c3ccc4c(c3)Cn3c(cc(-c5ccc(C#N)cc5)c3Cl)-c3nncn3-4)C2)C1` [Compound 168, 4-(11-chloro-7-(2-methyl-2,6-diazaspiro[3.4]octan-6-yl)-9H-benzo[e]pyrrolo[1,2-a][1,2,4]triazolo[3,4-c][1,4]diazepin-12-yl)benzonitrile] the IC50 was 100 to 200 nM. With `C[C@@H](CO)NC[C@H]1CCN(c2ccc3c(n2)Cn2cc(-c4ccc(F)cc4)cc2-c2nccn2-3)C1` [Compound 437, (S)-2-((((R)-1-(12-(4-fluorophenyl)-9H-imidazo[2,1-c]pyrido[3,2-e]pyrrolo[1,2-a][1,4]diazepin-7-yl)pyrrolidin-3-yl)methyl)amino)propan-1-ol] the IC50 was under 50 nM. `N#Cc1ccc(-c2cc3n(c2Cl)Cc2cc(N4CC[C@@H](CN)C4)ccc2-n2cnnc2-3)cc1` [Compound 169, (S)-4-(7-(3-(aminomethyl)pyrrolidin-1-yl)-11-chloro-9H-benzo[e]pyrrolo[1,2-a][1,2,4]tri-azolo[3,4-c][1,4]diazepin-12-yl)benzonitrile] showed an IC50 of under 50 nM. `O=C(O)CN1CC2(CCN(c3ccc4c(c3)Cn3cc(-c5ccc(F)cc5)cc3-c3nccn3-4)C2)C1` [Compound 478, 2-(6-(12-(4-fluorophenyl)-9H-benzo[e]imidazo[2,1-c]pyrrolo[1,2-a][1,4]diazepin-7-yl)-2,6-diazaspiro[3.4]octan-2-yl)acetic acid] gave an IC50 of 100 to 200 nM. `CNC[C@@H]1CCN(c2ccc3c(c2)Cn2cc(-c4ccc(C#N)cc4)cc2-c2ncnn2-3)C1` [Compound 262, (S)-4-(7-(3-((methylamino)methyl)pyrrolidin-1-yl)-9H-benzo[e]pyrrolo[1,2-a][1,2,4]triazolo[5,1-c][1,4]diazepin-12-yl)benzonitrile] was tested, and the IC50 was under 50 nM. `CN(C)C1CCN(c2cc3c(cn2)-n2cnnc2-c2cc(-c4ccc(C#N)cc4)cn2C3)CC1` [Compound 321, 4-(7-(4-(dimethylamino)piperidin-1-yl)-9H-pyrido[3,4-e]pyrrolo[1,2-a][1,2,4]triazolo[3,4-c][1,4]diazepin-12-yl)benzonitrile] was tested, and the IC50 was 100 to 200 nM. Work on `CNC[C@H]1CCN(c2ccc3c(c2)Cn2cc(-c4ccc(F)cc4)cc2-c2nccn2-3)C1` [Compound 348, (R)-1-(1-(12-(4-fluorophenyl)-9H-benzo[e]imidazo[2,1-c]pyrrolo[1,2-a][1,4]diazepin-7-yl)pyrrolidin-3-yl)-N-methylmethanamine] yielded an IC50 of under 50 nM. Compound `C[C@@H](CO)NC[C@@H]1CCN(c2ccc3c(c2)Cn2cc(-c4ccc(C#N)cc4)cc2-c2nncn2-3)C1` [Compound 86, 4-(7-((S)-3-((((S)-1-hydroxypropan-2-yl)amino)methyl)pyrrolidin-1-yl)-9H-benzo[e]pyrrolo[1,2-a][1,2,4]triazolo[3,4-c][1,4]diazepin-12-yl)benzonitrile] has an IC50 of under 50 nM. Work on `CNC[C@H]1CCN(c2ccc3c(c2)Cn2cc(-c4ccc(C#N)cc4)cc2-c2ncnn2-3)C1` [Compound 263, (R)-4-(7-(3-((methylamino)methyl)pyrrolidin-1-yl)-9H-benzo[e]pyrrolo[1,2-a][1,2,4]triazolo[5,1-c][1,4]diazepin-12-yl)benzonitrile] yielded an IC50 of 100 to 200 nM. `CN(C)C[C@H]1CN(c2ccc3c(n2)Cn2cc(-c4ccc(F)cc4)cc2-c2ncnn2-3)C[C@H]1O` [Compound 429, (3S,4S)-4-((dimethylamino)methyl)-1-(12-(4-fluorophenyl)-9H-imidazo[2,1-c]pyrido[3,2-e]pyrrolo[1,2-a][1,4]diazepin-7-yl)pyrrolidin-3-ol] showed an IC50 of under 50 nM. `CN(C)[C@H]1CN(c2ccc3c(c2)Cn2cc(-c4ccc(F)cc4)cc2-c2nccn2-3)C[C@@H]1O` [Compound 352, (3S,4S)-4-(dimethylamino)-1-(12-(4-fluorophenyl)-9H-benzo[e]imidazo[2,1-c]pyrrolo[1,2-a] [1,4]diazepin-7-yl)pyrrolidin-3-ol] was tested, and the IC50 was under 50 nM. For `CC(C)(CO)NC[C@@H]1CCN(c2ccc3c(c2)Cn2cc(-c4ccc(C#N)cc4)cc2-c2nccn2-3)C1` [Compound 141, (S)-4-(7-(3-(((1-hydroxy-2-methylpropan-2-yl)amino)methyl)pyrrolidin-1-yl)-9H-benzo[e]imidazo[2,1-c]pyrrolo[1,2-a][1,4]diazepin-12-yl)benzonitrile], the IC50 was under 50 nM. `Fc1ccc(-c2cc3n(c2)Cc2cc(N4CC[C@@H](CNCC(F)F)C4)ccc2-n2ccnc2-3)cc1` [Compound 465, (S)-2,2-difluoro-N-((1-(12-(4-fluorophenyl)-9H-benzo[e]imidazo[2,1-c]pyrrolo[1,2-a][1,4]diazepin-7-yl)pyrrolidin-3-yl)methyl)ethanamine] was tested, and the IC50 was 200 to 1000 nM. For `COCc1cnc2n1-c1ccc(N3CC[C@@H](N(C)C)C3)cc1Cn1cc(-c3ccc(C#N)cc3)cc1-2` [Compound 278, 4-(7-((R)-3-(dimethylamino)pyrrolidin-1-yl)-3-(methoxymethyl)-9H-benzo[e]imidazo[2,1-c]pyrrolo[1,2-a][1,4]diazepin-12-yl)benzonitrile], the IC50 was under 50 nM. For `CN(C)[C@H]1CN(c2ccc3c(n2)Cn2cc(-c4ccc(C#N)cc4)cc2-c2nccn2-3)C[C@@H]1O` [Compound 301, 4-(7-((3S,4S)-3-(dimethylamino)-4-hydroxypyrrolidin-1-yl)-9H-imidazo[2,1-c]pyrido[3,2-e]pyrrolo[1,2-a][1,4]diazepin-12-yl)benzonitrile], the IC50 was 100 to 200 nM. Work on `CN(C)[C@@H]1CN(c2ccc3c(c2)Cn2cc(-c4ccc(C#N)cc4)cc2-c2nccn2-3)C[C@@H]1O` [Compound 134, 4-(7-((3R,4S)-3-(dimethylamino)-4-hydroxypyrrolidin-1-yl)-9H-benzo[e]imidazo[2,1-c]pyrrolo[1,2-a][1,4]diazepin-12-yl)benzonitrile] yielded an IC50 of under 50 nM. Compound `CNCC1CCN(c2ccc3c(c2)Cn2cc(-c4ccc(C#N)cc4)cc2-c2nnnn2-3)C1` (centres unmarked) [Compound 239, 4-(7-(3-((methylamino)methyl)pyrrolidin-1-yl)-9H-benzo[e]pyrrolo[1,2-a]tetrazolo[5,1-c] [1,4]diazepin-12-yl)benzonitrile] has an IC50 of under 50 nM.

Reference: patent publication US10562909B2, “Fused quadracyclic compounds, compositions and uses thereof” (Tabomedex Biosciences, LLC, priority 2016, dated 2020)
